In a melting point compilation (Tetko et al.):

Structure (SMILES) | melting point [°C]
CC(C)(C)c1ncc(N)cn1 | 119 to 121
CC(=O)CC(=O)CCN1C(=O)c2ccccc2C1=O | 104 to 106
CCN(CC)C(N)=S | 98 to 102
N#Cc1ccc(N2N=C(c3ccccc3)CC2=O)cc1 | 211 to 213
Cc1ncc(CN)c(O)n1 | 194 to 196
CCN(CC)S(=O)(=O)c1cccc(-c2nnc(S)o2)c1 | 95 to 101
N#CC1=C(C(=O)O)CCC1 | 108 to 110
CS(=O)(=O)N1CCCC1C(=O)O (configuration not stated) | 52 to 54
CC(O)c1nc2cc(Cl)ccc2n1C (configuration not stated) | 136 to 138
CN(C)C(=O)c1ccc(O)cc1 | 156 to 158
CN1CCN(C(=O)C2CCN(C(=O)OC(C)(C)C)CC2)CC1 | 95 to 97
Cc1ccc(C(=O)NC2CC2)cc1N | 114 to 116
NC(=O)NCC(=O)O | 174 to 176
CCOc1ccc(C(C)=O)cc1CCl | 80 to 82
O=C(O)CSc1nnc(-c2ccccc2)o1 | 169 to 171
O=C(O)c1cc(-c2ccccc2)nc2nc(N3CCCCC3)sc12 | 347 to 349
Cc1ccc(-c2nnc(C(C)Cl)o2)cc1 (configuration not stated) | < 17
O=C(c1cc(Br)c[nH]1)N1CCCC1 | 210 to 212
O=Cc1cccc(OCC(=O)O)c1 | 111 to 113
CC(=O)NCc1ccc(-c2nc(N)sc2C)s1 | 154 to 156
O=C(O)Cc1csc(-c2ccc(Cl)cc2)n1 | 255 to 257
Cc1nc(CCCC(=O)O)cs1 | 66 to 68
Cc1ccc(N(C(=O)CCl)C2C=CS(=O)(=O)C2)cc1C (configuration not stated) | 136 to 138
CC(C)COC(=O)Nc1cccc(N)c1 | 92 to 94

Structure (SMILES) | melting point [°C]
CN(C)C(N)=S | 144 to 146
O=Cc1c[nH]c2cccc(F)c12 | 169 to 171
O=C(O)C1(c2cccs2)CCCCC1 | 146 to 148
Cc1cc([N+](=O)[O-])ccc1S(N)(=O)=O | 155 to 157
CCOCCOc1ccc(Br)cc1/C=C/C(=O)O | 109 to 111
O=C(O)c1ccc(Br)cc1C(F)(F)F | 116 to 117
CCS(=O)(=O)NCc1ccc(C(=O)O)cc1 | 194 to 196
NCc1cc(Br)c2c(c1)OCO2 | 49 to 51
O=C1CN(c2ccccc2)CCCN1 | 191 to 193
COc1ccc2nc(C)cc(C(=O)O)c2c1 | 279 to 281
O=C(O)c1ccccc1SCCO | 125 to 127
CCCC(C(=O)O)c1ccccc1 (configuration not stated) | 63 to 67
CCc1ccccc1NC(=O)CN1CCNCC1 | 88 to 90
CCNC(=O)NC(=O)C(C)Cl (configuration not stated) | 126 to 128
COc1ccc(S(=O)(=O)N2CCCCCC2)cc1N | 118 to 119
N#CCN1C(=O)c2ccccc2C1=O | 125 to 127
O=C(O)c1ccc(Oc2ccc(Cl)cn2)cc1 | 215 to 217
CNC(=O)c1ccc([N+](=O)[O-])cc1Cl | 166 to 168
CCC1C(=O)NC(=S)N(c2ccc(Cl)cc2)C1=O (configuration not stated) | 148 to 150
O=C(Nc1cccc(F)c1)OCC(F)(F)F | 50 to 52
O=C(O)c1c2c(cc([N+](=O)[O-])c1[N+](=O)[O-])OCCO2 | 210 to 212
CCC(=O)N1CCc2cc(C(=O)O)ccc21 | 228 to 230
CC(=O)Nc1[nH]c(=O)ccc1[N+](=O)[O-] | 182 to 184
Nc1nc(-c2cc(Cl)sc2Cl)cs1 | 144 to 146

Structure (SMILES) | melting point [°C]
O=C(CCl)Nc1nc(-c2ccc(F)cc2)cs1 | 142 to 144
CN(C)C(=O)COc1ccccc1C=O | 89 to 91
O=Cc1cc(C23CC4CC(CC(C4)C2)C3)n[nH]1 | 134 to 136
CCN(CC)S(=O)(=O)c1ccc(N2CCC(C(=O)O)CC2)c([N+](=O)[O-])c1 | 204 to 206
NS(=O)(=O)c1c[nH]c(=O)[nH]c1=O | 299 to 301
COc1ccc(C(=O)Nc2ccccc2C(=O)O)cc1 | 184 to 186
Nc1nc(-c2ccc(F)cc2)ns1 | 154 to 156
COC(=O)c1c[nH]c(=O)c(N)c1 | 209 to 211
COCCn1c(N)c(NCc2ccccc2)c(=O)[nH]c1=O | 151 to 153
O=C(CCl)Nc1ccc(Oc2ccc(Br)cc2)nc1 | 114 to 116
CC(C)(C)c1cc(N)n(C2CCS(=O)(=O)C2)n1 (configuration not stated) | 247 to 249
O=c1[nH]c2cc([N+](=O)[O-])ccc2o1 | 229 to 231
O=C1CSC(c2ccc(F)cc2)N1C1CC1 (configuration not stated) | 225 to 227
c1nnc(C2CC2)n1C1CC1 | 74 to 76
Cc1cc(Br)cn2c(CO)cnc12 | 174 to 176
CCOc1cc(C=O)ccc1OCc1ccc(C(C)(C)C)cc1 | 113 to 115
COc1cc(C(C[N+](=O)[O-])c2c[nH]c3ccccc23)ccc1O (configuration not stated) | 115 to 117
CC(c1ccco1)N(C(=O)CCl)c1ccccn1 (configuration not stated) | 87 to 89
CC(C)N1C(=O)c2ccc(C(=O)O)cc2S1(=O)=O | 238 to 240
Nc1ccc(S(=O)(=O)Nc2ccc(Cl)cc2Cl)cc1 | 162 to 164
Nc1nc2ccc(Oc3ccccc3)cc2s1 | 159 to 161
CN1CC(=O)Nc2ccc(Cl)nc21 | 233 to 235
CC(C)=CCOc1cccc(C(=O)O)c1 | 86 to 88
CC(C)(C(=O)O)c1ccc(Cl)c(Cl)c1 | 94 to 96
